According to US20230348401A1, “Inhibitors of Glucose-6-phosphate Dehydrogenase and Uses Thereof” (The Trustees of Princeton University, priority 2020, published 2023):
Read-outs that look alike come from different tables or passages of the source.

What was measured:
G6PD [1] = target: T1, G6PD (Homo sapiens, UniProt P11413); assay: 6-pg levels in HepG2 cells (cellular target engagement); format: cell-based; parameters: endogenous in cells; conditions: for dose-dependent decrease in 6-pg levels: dose-response
Excerpt: Direct Monitoring of 6-pg in cells. The metabolite 6-phosphogluconate (6-pg) is a downstream product of the G6PD reaction, and is believed to be made predominantly by the oxidative pentose phosphate pathway in mammalian cells. Though the direct product of G6PD is the lactone form of 6-pg (6-phosphogluconolactone), this product is believed to readily hydrolyze to 6-pg under cellular conditions, and is therefore difficult to detect. Thus, to directly monitor the G6PD reaction, methods for measuring 6-pg levels in intact cells were developed.
To explore this possibility further, more specific assays for evaluating G6PD cellular target engagement were developed. […] These included the hepatocellular carcinoma line, HepG2, which was selected as the primary cell for direct 6-pg monitoring. Consistent with the oxPPP being the primary source of 6-pg in these cells, G6PD knockout led to nearly complete 6-pg loss (FIGS. 1B and 1C).
(§1) For analysis of intracellular metabolites by LC-MS, adherent cell lines were plated and grown to 80% confluency in 6-well plates. At the start of an experiment, the appropriate media was added to cells, which included isotope tracers and/or chemical inhibitors as described. Cells were incubated at 37° C. at 5% CO2 for 2 hours (unless otherwise noted). For all experiments involving small molecule agents, DMSO concentrations were <0.2%. After 2 hours, media was removed by aspiration and metabolome extraction was performed (without any wash steps) by the addition of 800 µL of ice cold solvent (40:40:20 acetonitrile:methanol:water + 0.5% formic acid). After a 1-minute incubation on ice, the extract was neutralized by the addition of NH4HCO3 (15% w/v). The samples were incubated at -20° C. for approximately 30 minutes, at which point the wells were scraped and the extract transferred to Eppendorf tubes and centrifuged (15 minutes, 16000 rpm, 4° C.). The resulting supernatant was frozen on dry ice and kept at -80° C. until LC-MS analysis.
Metabolites were analyzed using a quadrupole-orbitrap mass spectrometer (Q Exactive Plus, Thermo Fisher Scientific, Waltham, MA), coupled to hydrophilic interaction chromatography (HILIC) with LC separation on a XBridge BEH Amide column (Waters), or a stand-alone orbitrap (Thermo-Fisher Exactive) coupled to reversed-phase ion-pairing chromatography with LC separation on a HSS-T3 column (Waters). Both mass spectrometers were operating in negative ion mode and were coupled to their respective liquid chromatography methods via electrospray-ionization. Detailed analytical conditions have been previously described.
Target sequence in this assay (P11413 whole entry): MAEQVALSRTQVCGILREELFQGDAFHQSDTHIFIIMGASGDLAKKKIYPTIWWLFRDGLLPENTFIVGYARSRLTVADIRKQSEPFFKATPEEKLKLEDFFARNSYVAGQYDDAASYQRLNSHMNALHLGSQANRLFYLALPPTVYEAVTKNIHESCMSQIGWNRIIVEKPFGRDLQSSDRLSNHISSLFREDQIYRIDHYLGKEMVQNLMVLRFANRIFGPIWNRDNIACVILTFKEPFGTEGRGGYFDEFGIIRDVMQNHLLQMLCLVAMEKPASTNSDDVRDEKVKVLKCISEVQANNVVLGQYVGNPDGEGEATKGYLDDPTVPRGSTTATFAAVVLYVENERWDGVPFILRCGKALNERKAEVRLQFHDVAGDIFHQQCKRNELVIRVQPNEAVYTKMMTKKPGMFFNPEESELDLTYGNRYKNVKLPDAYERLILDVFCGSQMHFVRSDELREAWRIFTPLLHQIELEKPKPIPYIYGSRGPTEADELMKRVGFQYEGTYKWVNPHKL

G6PD [2] = target: T1, G6PD; assay: Cellular thermal shift assay (CETSA) in HepG2 lysates; format: binding; parameters: endogenous in cells; conditions: up to 56° C.
Experimental: Lysates from HepG2 cells at 75% confluence were isolated with 0.5% Triton in TBS (20 mM, Tris pH 7.4, 150 mM NaCl) for 30 min on ice, pre-cleared by centrifugation and used for thermal shift assay as described 49. Briefly, inhibitor or DMSO control was added to lysates at indicated concentration and incubated for 30 min on ice followed by 3 min heating at 47° C., 50° C., 53° C., and 56° C. in a thermal cycler. After heating, tubes were cooled at room temperature for 3 min and insoluble fraction removed by centrifugation at 17,000 g for 20 min. The soluble fraction was separated by SDS-PAGE, transferred to PVDF membrane, and immunoblotted using indicated antibodies at a dilution of 1:2000. Blots were developed by chemiluminescence and imaged using LI-COR C-DiGit Western Blot Scanner. Two independent experiments were performed. Signal intensity of proteins from immunoblots was quantified using Image Studio version 5.2 for C-DiGit Scanner, and bands were normalized to signal intensity of the 47° C. treated samples. Relative signal intensities were plotted as bar graph relative to the DMSO treated control.
Target sequence in this assay (P11413 whole entry): as above

G6PD [3] = target: T1, G6PD; assay: 2H transfer from 1-2H-glucose to NADPH active hydride and C16:0 in HCT116 cells; format: cell-based; parameters: endogenous in cells; host or cells: HCT116; conditions: for dose-dependent decrease in 2H transfer from 1-2H-glucose to NADPH's active hydride: HCT116 cells, dose-response
Excerpt: Direct Monitoring of NADPH Produced by the G6PD Reaction. […] NADPH production is compartmentalized, and occurs through reduction of its redox partner NADP^+. G6PD is one of the main enzymes that generates NADPH, and catalyzes the transfer of electrons (in the form of hydride) from glucose-6-phosphate to NADP^+. By installing a deuterium at the “one” position of glucose (1-^2H-glucose), the transfer of that deuterium to the active hydride of NADPH via glucose-6-phosphate can be specifically monitored. Also, a major use of cytosolic NADPH is fat synthesis. Transfer of ^2H from glucose via NADPH into free palmitate (C16:0) requires two NADPH per two-carbon unit addition during its synthesis.
Next, G6PD mediated hydride transfer to NADPH was directly monitored. Specifically, transfer of deuterium from 1-^2H-glucose, via glucose-6-phosphate, to the NADPH’s active hydride was monitored (FIG. 1B). […] The impacted step was G6PD, as no change in substrate (G6P) labeling was observed (FIG. 1E). A major use of cytosolic NADPH is fat synthesis. Transfer of ^2H from glucose via NADPH into palmitate (C16:0), which requires two NADPH per 2-carbon unit addition during its synthesis, was quantified (FIG. 1B).
For all experiments involving stable isotope tracers (e.g., 1-^2H-glucose), the isotope tracer nutrient was substituted for unlabeled nutrient at the same concentration normally found in the base media for a given cell type (e.g., DMEM for HCT116, RPMI for T cells, etc.). In addition, dialyzed FBS was used as a supplement in place of FBS.
Cytosolic NADPH sources were traced, and redox active hydride labeling was calculated, using a previously described strategy. 1-^2H-glucose (which directly traces G6PD) or 3-^2H-glucose (which directly traces PGD) were used for tracing oxPPP contribution to NADPH; 4-^2H-glucose for ME1; [2,3,3,4,4-^2H5]-glutamine, for both ME1 and IDH1; and D2O, to account for solvent exchange.
as §1
Target sequence in this assay (P11413 whole entry): as above

G6PD [4] = target: T1, G6PD; assay: G6PD enzymatic activity by diaphorase-coupled assay
Target sequence in this assay (P11413 28-515): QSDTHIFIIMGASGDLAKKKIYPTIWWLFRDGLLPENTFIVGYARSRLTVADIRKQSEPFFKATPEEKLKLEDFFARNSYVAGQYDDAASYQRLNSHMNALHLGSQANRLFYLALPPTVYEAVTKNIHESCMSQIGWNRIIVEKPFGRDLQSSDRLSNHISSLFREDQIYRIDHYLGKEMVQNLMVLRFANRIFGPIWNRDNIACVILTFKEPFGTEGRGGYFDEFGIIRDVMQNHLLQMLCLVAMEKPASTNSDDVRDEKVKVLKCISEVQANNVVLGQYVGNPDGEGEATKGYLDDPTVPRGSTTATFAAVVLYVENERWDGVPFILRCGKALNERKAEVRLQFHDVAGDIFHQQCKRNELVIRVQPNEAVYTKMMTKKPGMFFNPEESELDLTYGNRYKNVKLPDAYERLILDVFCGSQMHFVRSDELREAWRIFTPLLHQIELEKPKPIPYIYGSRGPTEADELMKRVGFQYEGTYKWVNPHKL

G6PD [5] = target: T1, G6PD; assay: G6PD enzymatic activity by LC-MS (6-pg production); format: biochemical; parameters: Partially truncated human G6PD (residues 28-515, Uniprot ID P11413); His6 with thrombin cleavage site (N, cleaved yes); made in house; host or cells: Escherichia coli BL21(DE3)pLysS; conditions: orthogonal LC-MS assay
Experimental: Aliquots of reaction mixture were collected at indicated time points and rapidly quenched by diluting (1:5) into methanol precooled on dry ice. The mixtures were centrifuged at 13,000 rcf for 20 minutes at 4° C., and the resulting supernatants were diluted (1:20) into 40:40:20 methanol/ acetonitrile/ water and analyzed by LC-MS.
Target sequence in this assay (P11413 28-515): as above

[6] = Normalized in vitro IC50, Table 1, diaphorase-coupled biochemical assay, normalization to an intraplate control

Row | SMILES | IC50 (G6PD [4]; [6]) | IC50 (G6PD [4]) | further results
1 | C[C@]12CC[C@H](O)CC1=CC[C@@H]1[C@@H]2CC[C@]2(C)C(=O)CC[C@@H]12 [DHEA, dehydroepiandrosterone] | – | – | 6-pg level (G6PD [1]; HepG2 cells, 100 µM, 2 hours): did not impact the 6-pg level; dose-dependent decrease in 6-pg levels (G6PD [1]; HepG2 cells): not; thermal stabilization of G6PD (G6PD [2]): not; C16:0 labeling (G6PD [3]; 100 µM, 2 hours): did not decrease; NADPH active hydride labeling (G6PD [3]; 100 µM, 2 hours): did not decrease; dose-dependent decrease in 2H transfer from 1-2H-glucose to NADPH's active hydride (G6PD [3]): not; IC50 (G6PD [4]; IC50 (half-maximal inhibitory constant) against human G6PD, coupled enzymatic assay, recombinant human enzyme): ~9.5 µM
2 | O=C1CCCc2nc(Nc3ccc4ncsc4c3)ncc21 [KG-0224-0] | 1 to 1000 µM | – | –
3 | O=C1CCCc2nc(Nc3ccc4scnc4c3)ncc21 [KG-0227-0] | 1 to 1000 µM | – | –
4 | O=C1CCCc2nc(Nc3ccc4occc4c3)ncc21 [KG-0228-0] | 1 to 1000 µM | – | –
5 | O=C1CCCc2nc(Nc3ccc4cn[nH]c4c3)ncc21 [KG-0229-0] | 1 to 1000 µM | – | –
6 | O=C1CCCc2nc(Nc3ccc4[nH]ncc4c3)ncc21 [KG-0232-0] | < 1 µM | – | –
7 | O=C(O)c1cccc(Nc2ncc3c(n2)CCCC3=O)c1 [KG-0237-0] | > 1000 µM | – | –
8 | NC(=O)c1cccc(Nc2ncc3c(n2)CCCC3=O)c1 [KG-0238-0] | 1 to 1000 µM | – | –
9 | CCOc1cccc(Nc2ncc3c(n2)CCCC3=O)c1 [KG-0239-0] | 1 to 1000 µM | – | –
10 | O=C1CCCc2nc(Nc3cccc(CO)c3)ncc21 [KG-0240-0] | 1 to 1000 µM | – | –
11 | O=C1CCCc2nc(Nc3cccc(-c4nnn[nH]4)c3)ncc21 [KG-0241-0] | 1 to 1000 µM | – | –
12 | O=C1CCCc2nc(Nc3cccc(C4(O)COC4)c3)ncc21 [KG-0242-0] | 1 to 1000 µM | – | –
13 | N#Cc1cccc(Nc2ncc3c(n2)CCCS3(=O)=O)c1 [KG-0249-0] | – | 1 to 1000 µM | –
14 | O=C1CCCc2nc(Nc3cccc(Oc4ccccc4)c3)ncc21 [KG-0251-0] | 1 to 1000 µM | – | –
15 | O=C1CCCc2nc(Nc3cccc(OCc4ccccc4)c3)ncc21 [KG-0252-0] | 1 to 1000 µM | – | –
16 | N#Cc1cc(Nc2ncc3c(n2)CCCC3=O)cs1 [KG-0254-0A] | – | < 1 µM | –
17 | COc1cc(C#N)cc(Nc2ncc3c(n2)CCCC3=O)c1 [KG-0255-0] | < 1 µM | – | –
18 | COc1cc(Cl)cc(Nc2ncc3c(n2)CCCC3=O)c1 [KG-0256-0] | < 1 µM | – | –
19 | O=C(Nc1ncc2c(n1)CCCC2=O)c1ccccc1 [KG-0258-0] | > 1000 µM | – | –
20 | CO/N=C1\CCCc2nc(Nc3cccc(C#N)c3)ncc21 [KG-0260-0] | – | > 1000 µM | –

Row | SMILES | IC50 (G6PD [4]; [6]) | IC50 (G6PD [4]) | further results
21 | N#Cc1cccc(Nc2ncc3c(n2)CCCC3O)c1 (centres unmarked) [KG-0261-10] | – | 1 to 1000 µM | –
22 | N#Cc1cc(Cl)cc(Nc2ncc3c(n2)CCCC3=O)c1 [KG-0265-0] | < 1 µM | – | –
23 | CCNC(=O)Nc1cccc(Nc2ncc3c(n2)CCCC3=O)c1 [KG-0283-0] | 1 to 1000 µM | – | –
24 | N#Cc1cccc(Nc2ncc3c(n2)CCC(O)C3=O)c1 (centres unmarked) [KG-0315-0A] | < 1 µM | – | –
25 | N#Cc1cc(Nc2ncc3c(n2)CCC(Br)C3=O)cs1 (centres unmarked) [KG-0316] | – | < 1 µM | –
26 | N#Cc1cc(Nc2ncc3c(n2)CCC(O)C3=O)cs1 (centres unmarked) [KG-0317] | – | < 1 µM | –
27 | N#Cc1cc(Nc2ncc3c(n2)CCC(C(F)(F)F)C3=O)cs1 (centres unmarked) [KG-0318] | – | < 1 µM | –
28 | COC1CCc2nc(Nc3csc(C#N)c3)ncc2C1=O (centres unmarked) [KG-0321] | – | < 1 µM | –
29 | N#Cc1cccc(Nc2ncc3c(n2)CCCC(O)C3=O)c1 (centres unmarked) [KG-0331] | – | 1 to 1000 µM | –
30 | O=C1c2cnc(Nc3cccc(Cl)c3)nc2CCCC1O (centres unmarked) [KG-0332-0] | – | 1 to 1000 µM | –
31 | N#Cc1cc(Nc2ncc3c(n2)CCCC(O)C3=O)cs1 (centres unmarked) [KG-0333-0] | – | < 1 µM | –
32 | N#Cc1cccc(Nc2ncc3c(n2)CCCC(Br)C3=O)c1 (centres unmarked) [KG-0334] | – | < 1 µM | –
33 | O=C1c2cnc(Nc3cccc(Cl)c3)nc2CCCC1Br (centres unmarked) [KG-0335-0] | – | < 1 µM | –
34 | N#Cc1cc(Nc2ncc3c(n2)CCCC(Br)C3=O)cs1 (centres unmarked) [KG-0336-0] | – | < 1 µM | –
35 | N#Cc1cc(Nc2ncc3c(n2)CCCCC3=O)c(C(F)(F)F)s1 [KG-0337-0A] | – | 1 to 1000 µM | –
36 | N#Cc1cc(Nc2ncc3c(n2)CCCC(C(F)(F)F)C3=O)cs1 (centres unmarked) [KG-0337-0] | – | < 1 µM | –
37 | N#Cc1cc(Nc2ncc3c(n2)CCCCC3=O)cs1 [KG-0338] | – | < 1 µM | –
38 | O=C1CCCCc2nc(Nc3cccc(F)c3)ncc21 [KG-0339] | < 1 µM | – | –
39 | CN(c1cccc(C#N)c1)c1ncc2c(n1)CCCC2=O [neg-ctrl, 3-[methyl(5-oxo-5,6,7,8-tetrahydroquinazolin-2-yl)amino]benzonitrile] | – | – | dose-dependent decrease in 6-pg levels (G6PD [1]; HepG2 cells): not; dose-dependent decrease in 2H transfer from 1-2H-glucose to NADPH's active hydride (G6PD [3]): not; 6-pg production by recombinant human G6PD (G6PD [5]): did not; activity against G6PD (G6PD [4]; in vitro): lacked any activity against G6PD
40 | OC[C@H]1O[C@@H](Oc2cc(O)cc(/C=C/c3ccc(O)cc3)c2)[C@H](O)[C@@H](O)[C@@H]1O [polydatin] | – | – | 6-pg levels (G6PD [1]; 50 µM, 2 hours): failed to decrease; NADPH active hydride labeling (G6PD [3]; 50 µM, 2 hours): failed to decrease
